Reference: patent US20220127580A1, “COMPOSITIONS AND METHODS FOR REPROGRAMING NON-HEPATOCYTE CELLS INTO HEPATOCYTE CELLS” (priority 2019, published 2022)
Like-named read-outs stand apart in the source and are kept apart here.

Legend:
hiHeps [1] = test: Measurements of hepatic clearance in hiHeps suspension
Description: Briefly, a 1×10^6 cells/ml cell suspension and 2× drug solutions were prepared in incubation medium (William's E medium, 10 mM HEPES [pH 7.4], and 1% GlutaMAX). Reactions were started by adding 500 μl of drug solutions to 500 ul of hiHeps, giving a final substrate concentration of between 1 and 2 μM.
These concentrations were selected to be below the Km for most substrates but to still have sufficient analytical sensitivity. Reactions were performed in an orbital shaker in an incubator at 37° C. Then, 80 μl aliquots were removed at 0, 15, 30, 60, 90, 120, 180 and 240 minutes, and samples were quenched in 240 μl of methanol containing an isotope-labeled reference and frozen at −80° C. The substrates were quantified using the validated traditional LC-MS/MS methods described above. Assays were performed in triplicate.
The slope (−k) of the linear regression from the log [substrate] versus time plot was determined. […] No correction factor was made for any differential in vitro and in vivo binding, and the distribution of the drug between the plasma and blood was assumed to be unity.

[2] = cited from earlier work
CYP2B6 = tested on: CYP2B6
Description: (§1) Vehicle-treated groups were used to determine the basal activity. To measure the induced activity of PHHs, PHHs were cultured and induced under sandwich methods.

[3] = Toxicity assay in hiHeps (TC50); assay type: cell-based, human; settings: human, hiHeps, 24 hours; values rounded for ease of use
Description: (§2) For the toxicity assay, hiHeps, HepG2 cells and PHHs were cultured in 96-well or 384-well plates. Compounds with 7-8 concentration dilutions were prepared in DMEM with 3% FBS to test HepG2 cells or in HCM to test PHHs and hiHeps. The final DMSO concentration under all conditions was consistent.
(§3) Compounds were tested in bipartite in a dilution series by half-log concentration increments. After the cells were treated with compounds for 24 hours, the supernatant was discarded and modified WEM (William's E medium supplemented with 2% B27 and 1% GlutaMAX) containing fluorescent probes was added to cells. […] After incubation for 30 minutes, the supernatant was discarded and cells were washed twice. Images were acquired using the Operetta High-Content Imaging System (PerkinElmer) with a 10× objective. […] After 1-4 hour chromogenic reaction in the incubator, the absorbance at 450 nm was read using a SpectraMax i3× (Molecular Devices). Image data were analyzed online using the Columbus Image Data Storage and Analysis System (PerkinElmer) with the following steps: (1) identification and counting of nuclei; (2) identification and counting of live cells labeled by CellTrace™ Calcein Red-Orange AM; and (3) identification and counting of live cells labeled by MitoTracker™ Deep Red FM. The viability of each parameter transformed from image data and the CCK-8 assay data were entered into Excel. The cellular viability of each parameter was expressed as the live cell ratio and normalized to the negative control. The TC50 values of these four parameters were calculated separately, and the minimum TC50 value was used as the final TC50.

HBV = HBV infection of hiHeps, response to anti-HBV compounds; assay type: cell-based
hiHeps [4] = tested on: hiHeps
HepG2 cells = assay type: cell-based; settings: human
Description: For the toxicity assay, hiHeps, HepG2 cells and PHHs were cultured in 96-well or 384-well plates. Compounds with 7-8 concentration dilutions were prepared in DMEM with 3% FBS to test HepG2 cells or in HCM to test PHHs and hiHeps. The final DMSO concentration under all conditions was consistent. The detailed information of the tested compounds is listed in Table 7 ((Seglen, et. Al., Methods in Cell Biology 13, 29-83 (1976)), Zhong et. Al., Clin Chim Acta. 412, 1905-1911 (2011))).
Compounds were tested in bipartite in a dilution series by half-log concentration increments. […] After 1-4 hour chromogenic reaction in the incubator, the absorbance at 450 nm was read using a SpectraMax i3× (Molecular Devices). Image data were analyzed online using the Columbus Image Data Storage and Analysis System (PerkinElmer) with the following steps: (1) identification and counting of nuclei; (2) identification and counting of live cells labeled by CellTrace™ Calcein Red-Orange AM; and (3) identification and counting of live cells labeled by MitoTracker™ Deep Red FM. […] The cellular viability of each parameter was expressed as the live cell ratio and normalized to the negative control. The TC50 values of these four parameters were calculated separately, and the minimum TC50 value was used as the final TC50.

CYP1A2 = tested on: CYP1A2
Description: as §1

hiHeps [5] = test: Toxicity assay in hiHeps (TC50); assay type: cell-based, human
Description: as §2, §3

[6] = hiHeps suspension, substrate 1 μM, parent disappearance
[7] = scaled from hiHeps CLint, well stirred model, human

Q: Which results are given for `O=C(O)Cc1ccccc1Nc1c(Cl)cccc1Cl` [Diclofenac]?
A: In vitro Clint hiHeps by (hiHeps [1]; [6]): 4.5 μL/min/10^6; Scaled in vivo CLh by hiHeps (hiHeps [1]; [7]): 7.4 ml/mim/kg; Observed CLh in vivo ([2]; in vivo): 7.6

Q: What does the source list for `Cc1ncc2n1-c1ccc(Cl)cc1C(c1ccccc1F)=NC2` [Midazolam]?
A: In vitro Clint hiHeps by (hiHeps [1]; human, pH 7.4): 2.8 μL/min/10^6; Scaled in vivo CLh by hiHeps (hiHeps [1]; human, pH 7.4): 5.3 ml/mim/kg; Observed CLh in vivo ([2]; observed in vivo, previous reports): 5.3

Q: With `C=CCN1CC[C@]23c4c5ccc(O)c4O[C@H]2C(=O)CC[C@@]3(O)[C@H]1C5` [Naloxone] as the molecule, how does the “In vitro Clint hiHeps by” value (hiHeps [1]; [6]) read?
A: Its value is 14.2 μL/min/10^6.

Q: And the “Scaled in vivo CLh by hiHeps” value (hiHeps [1]; [7])?
A: The value was 13 ml/mim/kg.

Q: With `CCOc1ccc(NC(C)=O)cc1` [Phenacetin] as the molecule, how does the “In vitro Clint hiHeps by” value (hiHeps [1]; [6]) read?
A: Its value is 18.3 μL/min/10^6.

Q: And the “Scaled in vivo CLh by hiHeps” value (hiHeps [1]; [7])?
A: Its value is 14.1 ml/mim/kg.

Q: Which “induced activity of CYP2B6” value (CYP2B6) does the source give for `CCC1(c2ccccc2)C(=O)NC(=O)NC1=O` [Phenobarbital] here?
A: Its value is “could be induced”.

Q: For `CN(C)CCCN1c2ccccc2Sc2ccc(Cl)cc21` [chlorpromazine], which CC50 at 24 h [3] is on record?
A: Its CC50 at 24 h is ~25 µM.

Q: For `C=C1[C@H](CO)[C@@H](O)C[C@@H]1n1cnc2c(=O)[nH]c(N)nc21` [entecavir], which “inhibition of HBV-DNA” value (HBV; HBV-infected hiHeps, LAM 1 μM, ETV 0.5 μM, especially during prolonged treatment) is on record?
A: Its value is “greatly inhibited”.

Q: For `CC(C)C(=O)Nc1ccc([N+](=O)[O-])c(C(F)(F)F)c1` [flutamide], which “toxicity after induction with rifampin” value (hiHeps [4]) is on record?
A: Its value is “increased after induction with rifampin”.

Q: What about the cell viability (HepG2 cells) of the same molecule?
A: The cell viability was 100%.

Q: For `CC(=O)N1CCN(c2ccc(OCC3COC(Cn4ccnc4)(c4ccc(Cl)cc4Cl)O3)cc2)CC1` (centres unmarked) [ketoconazole], which “rescue from rifampin-increased toxicity of AFB1 and flutamide” value (hiHeps [4]) is on record?
A: Its value is “rescued”.

Q: For `Cc1c(OCC(F)(F)F)ccnc1C[S+]([O-])c1nc2ccccc2[nH]1` (centres unmarked) [lansoprazole], which “induced activity of CYP1A2” value (CYP1A2) is on record?
A: The value was “could be induced”.

Q: For `CO[C@H]1/C=C/O[C@@]2(C)Oc3c(C)c(O)c4c(O)c(c(/C=N/N5CCN(C)CC5)c(O)c4c3C2=O)NC(=O)/C(C)=C\C=C\[C@H](C)[C@H](O)[C@@H](C)[C@@H](O)[C@@H](C)[C@H](OC(C)=O)[C@@H]1C` [rifampin], which CC50 at 24 h [3] is on record?
A: Its CC50 at 24 h is 100 µM.

Q: With `Cc1c(C)c2c(c(C)c1O)CCC(C)(COc1ccc(CC3SC(=O)NC3=O)cc1)O2` (centres unmarked) [troglitazone] as the molecule, how does the “chronic toxicity (cell death)” value (hiHeps [5]) read?
A: Its value is “caused extensive cell death”.

Q: For `O=c1cc(-c2ccccc2)oc2ccc3ccccc3c12` [β-naphthoflavone], which “induced activity of CYP1A2” value (CYP1A2) is on record?
A: Its value is “could be induced”.

Q: With aflatoxin B1 as the molecule, how does the “toxicity after induction with rifampin” value (hiHeps [4]) read?
A: The value was “increased after induction with rifampin”.

Q: For interferon-alpha, which “effect on all major HBV markers” value (HBV; HBV-infected hiHeps, 1000 U/mL after infection) is on record?
A: The value was “inhibitory effect”.

Q: What about the IFN-stimulated genes expression (HBV; hiHeps, 1000 U/mL) of the same molecule?
A: Its IFN-stimulated genes expression is “upregulation”.
